The structures appear in SMILES notation.

In the assay the test system is Sprague-Dawley (SD) rats, partial sciatic nerve ligation (Seltzer model). As to the kind of experiment: Analgesic effects on a neuropathic pain model (partial sciatic nerve ligation model, mechanical allodynia, von Frey filaments). It is filed as in vivo, rat. The settings on record: one hour after administration. As for the experimental part:
The effect of compound A in improving mechanical allodynia was evaluated using the partial sciatic nerve ligation model (Seltzer model, Pain, 43: 205-218, 1990) which belongs to the neuropathic pain models. For detecting the mechanical allodynia, the sole of the right paw of each rat was stimulated with von Frey filaments, and the threshold of the reaction for the mechanical stimulation (50% threshold) was determined according to a method of Chaplan et al. (J. Neurosci. Methods, 53: 55-63, 1994). In this step, the stimulation of the sole of the paw with each filament was repeated 8 times at a rate of about twice a second.
About a half thickness of the right sciatic nerve of each 8 week-old male Sprague-Dawley (SD) rat, whose reaction threshold was determined before the nerve injury, was ligated with a surgical suture to partially injure the nerve according to a method of Seltzer et al. (Pain, 43: 205-218, 1990). Six days after the nerve injury, the reaction threshold of the right hindpaw was determined and compared with that determined before the nerve injury. Individuals having a threshold far lower than that determined before the nerve injury [i.e. rats showing mechanical allodynia] were selected for evaluating allodynia improving effect. Seven and 9 days after the nerve injury, the reaction threshold of the rats selected for the purpose of the evaluation was determined before compound administration. […] One hour after the administration, the reaction threshold of each rat was determined.
The effect of compound B in improving mechanical allodynia was evaluated using the partial sciatic nerve ligation model (Seltzer model, Pain, 43: 205-218, 1990) which belongs to the neuropathic pain models. […] Six days after the nerve injury, the reaction threshold of the right hindpaw was determined and was compared with that determined before the nerve injury. Individuals having a threshold far lower than that determined before the nerve injury [i.e. rats showing mechanical allodynia] were selected for evaluating allodynia improving effect. […]

Regarding `CC(C)(C)C(=O)NCCC(=O)N1CCC(=C2c3ccccc3C=Cc3ccccc32)CC1` [Example 11, N-{3-[4-(5H-dibenzo[a,d][7]annulen-5-ylidene)-1-piperidinyl]-3-oxopropyl}-2,2-dimethylpropanamide], the “reaction threshold for mechanical stimulation (50% threshold) after the administration” value (3 mg/kg oral in 0.5% tragacanth) was “increased”.
For the compound `CC(C)(C)C(=O)N[C@H](CO)CCC(=O)N1CCC(=C2c3ccccc3C=Cc3ccccc32)CC1` [Example 71, (S)-N-[4-[4-(5H-dibenzo[a,d][7]annulen-5-ylidene)-1-piperidinyl]-1-(hydroxylmethyl)-4-oxobutyl]-2.2-dimethylpropanamide], the “reaction threshold for mechanical stimulation (50% threshold) after the administration” value is given as “hardly changed” (3 mg/kg oral in PEG) and “clearly increased” (100 mg/kg oral in PEG).

The values above are taken from patent US7462630B2, “Diarylalkene derivatives and novel diarylalkane derivatives” (Ajinomoto Co., Inc., priority 2001, dated 2008).
